Data from ChEMBL document CHEMBL1144021, “Molecular determinants of the anticonvulsant felbamate binding site in the N-methyl-D-aspartate receptor” (J Med Chem, 2008).
Activity calls are given as the source filed them. No cut-off for these calls is given here.

Key:
[1] = test system: Glutamate receptor ionotropic, NMDA 2B (Homo sapiens), Q13224 [K234A]; test: Inhibition of NR2B receptor ATD K234A mutant expressed in Xenopus oocytes assessed as NMDA current at 0.5 mM relative to control; assay type: cell-based; conditions: Oocyte
[2] = test system: Glutamate receptor ionotropic, NMDA 2B (Homo sapiens), Q13224 [N542A]; test: Inhibition of NR2B receptor Pre-M1 N542A mutant expressed in Xenopus oocytes assessed as NMDA current at 0.5 mM relative to control; assay type: cell-based; conditions: Oocyte
[3] = test system: Glutamate receptor ionotropic, NMDA 2B (Homo sapiens), Q13224 [T544A]; test: Inhibition of NR2B receptor Pre-M1 T544A mutant expressed in Xenopus oocytes assessed as NMDA current at 0.5 mM relative to control; assay type: cell-based; conditions: Oocyte
[4] = test system: Glutamate receptor ionotropic, NMDA 2B (Homo sapiens), Q13224 [S546A]; test: Inhibition of NR2B receptor Pre-M1 S546A mutant expressed in Xenopus oocytes assessed as NMDA current at 0.5 mM relative to control; assay type: cell-based; conditions: Oocyte
[5] = test system: Glutamate receptor ionotropic, NMDA 2B (Homo sapiens), Q13224 [Y646A]; test: Inhibition of NR2B receptor M3c Y646A mutant expressed in Xenopus oocytes assessed as NMDA current at 0.5 mM relative to control; assay type: cell-based; conditions: Oocyte
[6] = test system: Glutamate receptor ionotropic, NMDA 2B (Homo sapiens), Q13224 [S645A]; test: Binding affinity to NR2B receptor M3c S645A mutant
[7] = test system: Glutamate receptor ionotropic, NMDA 2B (Homo sapiens), Q13224 [[…]]; test: Binding affinity to NR2B receptor M3c T647A mutant
[8] = test system: Glutamate receptor ionotropic, NMDA 2B (Homo sapiens), Q13224 [L643A,T647A]; test: Binding affinity to NR2B receptor L643A/T647A mutant
[9] = test system: Glutamate receptor ionotropic, NMDA 2B (Homo sapiens), Q13224 [L643C,T647A]; test: Binding affinity to NR2B receptor L643C/T647A mutant
[10] = target: Glutamate receptor ionotropic, NMDA 2B (Homo sapiens) (UniProt Q13224); test: Inhibition of wild type NR2B receptor expressed in Xenopus oocytes assessed as NMDA current at 0.5 mM relative to control; assay type: cell-based; conditions: Oocyte
[11] = test system: Glutamate receptor ionotropic, NMDA 2B (Homo sapiens), Q13224 [D101A]; test: Inhibition of NR2B receptor ATD D101A mutant expressed in Xenopus oocytes assessed as NMDA current at 0.5 mM relative to control; assay type: cell-based; conditions: Oocyte
[12] = test system: Glutamate receptor ionotropic, NMDA 2B (Homo sapiens), Q13224 [T103A]; test: Inhibition of NR2B receptor ATD T103A mutant expressed in Xenopus oocytes assessed as NMDA current at 0.5 mM relative to control; assay type: cell-based; conditions: Oocyte
[13] = test system: Glutamate receptor ionotropic, NMDA 2B (Homo sapiens), Q13224 [E106A]; test: Inhibition of NR2B receptor ATD E106A mutant expressed in Xenopus oocytes assessed as NMDA current at 0.5 mM relative to control; assay type: cell-based; conditions: Oocyte
[14] = test system: Glutamate receptor ionotropic, NMDA 2B (Homo sapiens), Q13224 [F176A]; test: Inhibition of NR2B receptor ATD F176A mutant expressed in Xenopus oocytes assessed as NMDA current at 0.5 mM relative to control; assay type: cell-based; conditions: Oocyte
[15] = test system: Glutamate receptor ionotropic, NMDA 2B (Homo sapiens), Q13224 [F182A]; test: Inhibition of NR2B receptor ATD F182A mutant expressed in Xenopus oocytes assessed as NMDA current at 0.5 mM relative to control; assay type: cell-based; conditions: Oocyte
[16] = test system: Glutamate receptor ionotropic, NMDA 2B (Homo sapiens), Q13224 [S548A]; test: Inhibition of NR2B receptor Pre-M1 S548A mutant expressed in Xenopus oocytes assessed as NMDA current at 0.5 mM relative to control; assay type: cell-based; conditions: Oocyte
[17] = test system: Glutamate receptor ionotropic, NMDA 2B (Homo sapiens), Q13224 [V558A]; test: Inhibition of NR2B receptor Pre-M1 V558A mutant expressed in Xenopus oocytes assessed as NMDA current at 0.5 mM relative to control; assay type: cell-based; conditions: Oocyte
[18] = test system: Glutamate receptor ionotropic, NMDA 2B (Homo sapiens), Q13224 [W559A]; test: Inhibition of NR2B receptor Pre-M1 W559A mutant expressed in Xenopus oocytes assessed as NMDA current at 0.5 mM relative to control; assay type: cell-based; conditions: Oocyte
[19] = test system: Glutamate receptor ionotropic, NMDA 2B (Homo sapiens), Q13224 [I641A]; test: Inhibition of NR2B receptor M3c I641A mutant expressed in Xenopus oocytes assessed as NMDA current at 0.5 mM relative to control; assay type: cell-based; conditions: Oocyte
[20] = test system: Glutamate receptor ionotropic, NMDA 2B (Homo sapiens), Q13224 [F642A]; test: Inhibition of NR2B receptor M3c F642A mutant expressed in Xenopus oocytes assessed as NMDA current at 0.5 mM relative to control; assay type: cell-based; conditions: Oocyte
[21] = test system: Glutamate receptor ionotropic, NMDA 2B (Homo sapiens), Q13224 [L643A]; test: Inhibition of NR2B receptor M3c L643A mutant expressed in Xenopus oocytes assessed as NMDA current at 0.5 mM relative to control; assay type: cell-based; conditions: Oocyte
[22] = test system: Glutamate receptor ionotropic, NMDA 2B (Homo sapiens), Q13224 [F653A]; test: Inhibition of NR2B receptor M3c F653A mutant expressed in Xenopus oocytes assessed as NMDA current at 0.5 mM relative to control; assay type: cell-based; conditions: Oocyte
[23] = test system: Glutamate receptor ionotropic, NMDA 2B (Homo sapiens), Q13224 [Q656A]; test: Inhibition of NR2B receptor post-M3 Q656A mutant expressed in Xenopus oocytes assessed as NMDA current at 0.5 mM relative to control; assay type: cell-based; conditions: Oocyte
[24] = test system: Glutamate receptor ionotropic, NMDA 2B (Homo sapiens), Q13224 [T103A]; test: Binding affinity to NR2B receptor ATD T103A mutant
[25] = test system: Glutamate receptor ionotropic, NMDA 2B (Homo sapiens), Q13224 [F176A]; test: Binding affinity to NR2B receptor ATD F176A mutant
[26] = test system: Glutamate receptor ionotropic, NMDA 2B (Homo sapiens), Q13224 [T233A]; test: Binding affinity to NR2B receptor ATD T233A mutant
[27] = test system: Glutamate receptor ionotropic, NMDA 2B (Homo sapiens), Q13224 [K234A]; test: Binding affinity to NR2B receptor ATD K234A mutant
[28] = Ratio of Kapp for wild type NR2B receptor to Kapp for NR2B receptor L643C/T647A mutant
[29] = Ratio of Kapp for wild type NR2B receptor to Kapp for NR2B receptor L643A/S645A mutant
[30] = test system: Glutamate receptor ionotropic, NMDA 2B (Homo sapiens), Q13224 [L643A,K234A]; test: Binding affinity to NR2B receptor L643A/K234A mutant
[31] = Binding affinity to NR2B receptor […]/K234A mutant
[32] = Binding affinity to NR2B receptor […]/S645A mutant
[33] = Ratio of Kapp for wild type NR2B receptor to Kapp for ATD NR2B receptor F176A mutant
[34] = Ratio of Kapp for wild type NR2B receptor to Kapp for NR2B receptor M3c I641A mutant
[35] = Ratio of Kapp for wild type NR2B receptor to Kapp for NR2B receptor M3c S645A mutant

Chain of Glutamate receptor ionotropic, NMDA 2B (Homo sapiens), Q13224 [F176A] (Q13224 whole entry F176A): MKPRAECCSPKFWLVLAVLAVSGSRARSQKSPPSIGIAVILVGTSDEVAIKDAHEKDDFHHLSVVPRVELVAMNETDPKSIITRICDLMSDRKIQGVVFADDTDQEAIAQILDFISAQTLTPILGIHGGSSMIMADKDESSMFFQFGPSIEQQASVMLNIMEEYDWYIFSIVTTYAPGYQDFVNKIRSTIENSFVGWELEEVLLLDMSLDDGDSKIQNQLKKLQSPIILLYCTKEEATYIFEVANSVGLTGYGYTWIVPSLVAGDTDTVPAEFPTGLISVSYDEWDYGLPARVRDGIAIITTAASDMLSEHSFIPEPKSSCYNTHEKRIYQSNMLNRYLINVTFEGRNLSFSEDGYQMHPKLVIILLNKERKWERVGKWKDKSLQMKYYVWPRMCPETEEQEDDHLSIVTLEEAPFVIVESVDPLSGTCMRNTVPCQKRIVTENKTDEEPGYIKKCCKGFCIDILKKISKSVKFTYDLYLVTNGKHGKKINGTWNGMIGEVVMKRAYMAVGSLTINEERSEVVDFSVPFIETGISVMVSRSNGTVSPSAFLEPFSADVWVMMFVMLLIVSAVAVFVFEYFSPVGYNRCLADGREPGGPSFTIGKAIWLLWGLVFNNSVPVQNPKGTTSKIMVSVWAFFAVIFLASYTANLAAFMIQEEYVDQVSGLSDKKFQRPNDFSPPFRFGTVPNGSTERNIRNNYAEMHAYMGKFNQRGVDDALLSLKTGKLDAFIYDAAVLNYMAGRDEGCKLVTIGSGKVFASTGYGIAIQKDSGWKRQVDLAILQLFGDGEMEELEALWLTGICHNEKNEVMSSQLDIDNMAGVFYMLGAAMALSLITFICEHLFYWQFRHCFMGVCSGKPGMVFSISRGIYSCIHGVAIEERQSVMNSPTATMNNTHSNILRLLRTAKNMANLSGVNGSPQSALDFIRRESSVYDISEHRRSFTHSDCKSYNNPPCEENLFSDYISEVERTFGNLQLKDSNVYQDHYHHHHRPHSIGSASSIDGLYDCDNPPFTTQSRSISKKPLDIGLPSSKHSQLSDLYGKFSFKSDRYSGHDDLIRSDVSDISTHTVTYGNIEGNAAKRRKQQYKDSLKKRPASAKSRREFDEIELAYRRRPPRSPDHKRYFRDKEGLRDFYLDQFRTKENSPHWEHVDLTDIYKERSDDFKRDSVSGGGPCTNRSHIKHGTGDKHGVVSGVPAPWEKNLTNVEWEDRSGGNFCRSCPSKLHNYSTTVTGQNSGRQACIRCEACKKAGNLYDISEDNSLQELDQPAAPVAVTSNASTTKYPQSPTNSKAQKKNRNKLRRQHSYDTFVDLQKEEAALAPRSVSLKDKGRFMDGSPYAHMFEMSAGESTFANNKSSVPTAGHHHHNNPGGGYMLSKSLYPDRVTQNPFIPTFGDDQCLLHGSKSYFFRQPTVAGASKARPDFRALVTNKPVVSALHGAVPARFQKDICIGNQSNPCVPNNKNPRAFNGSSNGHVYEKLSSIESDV
Chain of Glutamate receptor ionotropic, NMDA 2B (Homo sapiens), Q13224 [T103A] (Q13224 whole entry T103A): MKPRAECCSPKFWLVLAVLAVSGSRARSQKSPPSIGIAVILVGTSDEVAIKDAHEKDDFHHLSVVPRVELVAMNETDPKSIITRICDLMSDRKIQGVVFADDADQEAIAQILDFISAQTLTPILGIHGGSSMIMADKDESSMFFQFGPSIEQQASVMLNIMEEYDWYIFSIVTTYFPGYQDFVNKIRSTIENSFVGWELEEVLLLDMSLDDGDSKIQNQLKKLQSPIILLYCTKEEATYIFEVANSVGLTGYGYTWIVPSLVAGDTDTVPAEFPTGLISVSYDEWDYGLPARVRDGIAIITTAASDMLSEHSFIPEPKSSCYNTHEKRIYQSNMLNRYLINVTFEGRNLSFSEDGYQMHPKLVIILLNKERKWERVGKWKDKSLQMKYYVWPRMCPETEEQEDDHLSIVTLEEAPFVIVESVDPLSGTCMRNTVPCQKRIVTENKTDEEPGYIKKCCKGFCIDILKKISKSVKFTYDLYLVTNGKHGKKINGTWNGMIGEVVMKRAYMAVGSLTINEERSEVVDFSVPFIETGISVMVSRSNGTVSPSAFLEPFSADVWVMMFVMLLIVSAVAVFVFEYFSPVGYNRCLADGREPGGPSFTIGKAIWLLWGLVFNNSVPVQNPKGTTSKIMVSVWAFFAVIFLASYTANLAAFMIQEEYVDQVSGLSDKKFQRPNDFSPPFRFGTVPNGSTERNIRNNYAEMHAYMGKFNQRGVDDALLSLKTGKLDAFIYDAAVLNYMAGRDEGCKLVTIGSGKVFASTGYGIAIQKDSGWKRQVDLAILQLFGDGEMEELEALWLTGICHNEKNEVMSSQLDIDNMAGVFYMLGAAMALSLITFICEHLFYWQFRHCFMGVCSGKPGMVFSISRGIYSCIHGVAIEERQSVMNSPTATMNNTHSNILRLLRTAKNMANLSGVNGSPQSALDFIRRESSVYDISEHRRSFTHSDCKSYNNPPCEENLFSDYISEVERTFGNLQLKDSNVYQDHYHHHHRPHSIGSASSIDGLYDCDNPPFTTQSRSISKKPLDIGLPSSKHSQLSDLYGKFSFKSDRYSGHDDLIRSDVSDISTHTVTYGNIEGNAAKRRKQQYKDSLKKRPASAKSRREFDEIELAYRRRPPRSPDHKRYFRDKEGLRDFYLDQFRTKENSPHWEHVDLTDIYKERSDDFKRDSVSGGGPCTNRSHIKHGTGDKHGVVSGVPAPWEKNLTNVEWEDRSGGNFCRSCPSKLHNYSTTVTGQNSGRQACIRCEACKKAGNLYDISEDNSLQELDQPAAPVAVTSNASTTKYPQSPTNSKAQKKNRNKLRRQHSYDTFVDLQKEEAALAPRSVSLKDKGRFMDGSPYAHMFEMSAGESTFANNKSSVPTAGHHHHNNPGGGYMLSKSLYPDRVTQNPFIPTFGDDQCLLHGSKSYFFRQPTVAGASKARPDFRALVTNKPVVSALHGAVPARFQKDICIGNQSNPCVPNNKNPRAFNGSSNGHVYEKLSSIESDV
Chain of Glutamate receptor ionotropic, NMDA 2B (Homo sapiens), Q13224 [K234A] (Q13224 whole entry K234A): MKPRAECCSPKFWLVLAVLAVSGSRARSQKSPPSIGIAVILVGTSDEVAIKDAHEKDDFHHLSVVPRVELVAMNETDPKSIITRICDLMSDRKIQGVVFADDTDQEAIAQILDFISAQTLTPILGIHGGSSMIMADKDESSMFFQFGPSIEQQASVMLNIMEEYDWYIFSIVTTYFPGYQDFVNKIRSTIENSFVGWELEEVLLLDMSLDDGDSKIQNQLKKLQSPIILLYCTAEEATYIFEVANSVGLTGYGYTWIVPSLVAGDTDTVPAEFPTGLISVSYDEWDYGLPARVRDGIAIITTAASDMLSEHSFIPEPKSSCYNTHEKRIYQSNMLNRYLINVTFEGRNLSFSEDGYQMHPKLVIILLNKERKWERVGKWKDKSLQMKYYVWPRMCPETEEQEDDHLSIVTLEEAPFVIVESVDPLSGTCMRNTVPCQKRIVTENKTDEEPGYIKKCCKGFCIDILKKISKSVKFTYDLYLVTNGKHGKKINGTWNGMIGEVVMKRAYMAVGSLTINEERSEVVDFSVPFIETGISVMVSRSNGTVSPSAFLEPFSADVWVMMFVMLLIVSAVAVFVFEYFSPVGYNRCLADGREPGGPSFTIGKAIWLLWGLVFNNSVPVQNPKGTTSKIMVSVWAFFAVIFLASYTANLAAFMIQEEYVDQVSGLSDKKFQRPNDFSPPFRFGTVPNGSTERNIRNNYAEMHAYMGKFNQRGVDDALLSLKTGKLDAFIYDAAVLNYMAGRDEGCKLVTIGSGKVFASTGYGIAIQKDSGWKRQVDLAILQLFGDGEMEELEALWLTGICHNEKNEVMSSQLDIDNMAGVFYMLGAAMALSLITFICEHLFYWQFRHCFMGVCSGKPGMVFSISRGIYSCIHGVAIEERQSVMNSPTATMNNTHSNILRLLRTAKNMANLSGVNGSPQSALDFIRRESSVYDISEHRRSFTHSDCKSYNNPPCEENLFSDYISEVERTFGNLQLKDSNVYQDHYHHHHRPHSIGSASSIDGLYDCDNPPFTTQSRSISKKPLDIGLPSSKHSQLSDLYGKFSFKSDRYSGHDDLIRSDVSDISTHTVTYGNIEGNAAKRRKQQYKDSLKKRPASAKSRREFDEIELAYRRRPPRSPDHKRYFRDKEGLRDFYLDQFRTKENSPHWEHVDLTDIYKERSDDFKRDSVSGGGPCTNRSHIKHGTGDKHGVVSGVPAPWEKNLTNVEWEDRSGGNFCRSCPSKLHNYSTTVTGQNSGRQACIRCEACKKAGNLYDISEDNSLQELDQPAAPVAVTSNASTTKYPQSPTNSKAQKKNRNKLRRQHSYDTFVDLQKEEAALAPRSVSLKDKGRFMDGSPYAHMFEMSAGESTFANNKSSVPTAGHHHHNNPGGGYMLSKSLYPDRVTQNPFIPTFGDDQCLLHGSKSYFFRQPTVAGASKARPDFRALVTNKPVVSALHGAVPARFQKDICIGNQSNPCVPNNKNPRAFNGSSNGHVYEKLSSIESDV

NC(=O)OCC(COC(N)=O)c1ccccc1
inhibition [1]: 85%
inhibition [2]: 73%
inhibition [3]: 69%
inhibition [4]: 64%
inhibition [5]: 74%
Kapp [6]: 4.23 mM
Kapp [7]: 6.5 mM
Kapp [8]: 34.5 mM
Kapp [9]: 18.6 mM
inhibition [10]: 68%
inhibition [11]: 83%
inhibition [12]: 85%
inhibition [13]: 74%
inhibition [14]: 84%
inhibition [15]: 72%
inhibition [16]: 76%
inhibition [17]: 71%
Activity [18]: inactive
inhibition [19]: 84%
inhibition [20]: 75%
inhibition [21]: 90%
Activity [22]: inactive
inhibition [23]: 70%
Kapp [24]: 4.21 mM
Kapp [25]: 2.77 mM
Kapp [26]: 2.56 mM
Kapp [27]: 4.31 mM
Ratio Ki(app) [28]: 21
Ratio Ki(app) [29]: 7.7
Kapp [30]: 6.33 mM
Kapp [31]: 7 mM
Kapp [32]: 7.04 mM
Ratio Ki(app) [33]: 3.2
Ratio Ki(app) [34]: 2.8
Ratio Ki(app) [35]: 4.9
